Where two headings read alike, the source gives them in different places. Starred links: 1 amine or outer side, 2 acyl side, 3 side chain; linkers in the order of their positions; H or OH if unused. Positions of bridges follow the written chain, without caps; N, C: chain ends. Non-standard residues stand in square brackets, D forms with d. Residues, ends and D or L forms follow the SMILES beside them. ξ: configuration not given here. *: point of attachment. Bip(4'-NH) = O=C([C@H](Cc1ccc(-c2ccc(N[*:3])cc2)cc1)N[*:1])[*:2]; Indazole3carbonyl(1-CH2COOH) = O=C(O)Cn1nc(C(=O)*)c2ccccc21; Bip(4'-NHAc) = CC(=O)Nc1ccc(-c2ccc(C[C@H](N)C(=O)O)cc2)cc1; X87 = N=C(NCCC[C@@H](N[*:1])C(=O)[*:2])NCc1ccc(C(=O)O)cc1; X42 = O=C(O)Cn1cc(C[C@H](NC(=O)c2ccccc2)C(=O)*)c2ccccc21; Ala(morpholin-4-yl) = N[C@@H](CN1CCOCC1)C(=O)O; Phe(3-CONH2) = NC(=O)c1cccc(C[C@H](N)C(=O)O)c1; Bip = N[C@@H](Cc1ccc(-c2ccccc2)cc1)C(=O)O; Morpholine(3S-CO) = O=C(O)[C@@H]1COCCN1; Phe(4-NH2) = Nc1ccc(C[C@H](N)C(=O)O)cc1; h4Pal = N[C@@H](CCc1ccncc1)C(=O)O; 2Pal = N[C@@H](Cc1ccccn1)C(=O)O; 3Pal = N[C@@H](Cc1cccnc1)C(=O)O; 2Thi = N[C@@H](Cc1cccs1)C(=O)O; Tle = CC(C)(C)[C@H](N)C(=O)O; ξIle = CC[C@H](C)C(N)C(=O)O; Sar = CNCC(=O)O
Biological target: TNFα (Homo sapiens, UniProt P01375)
Sequence (P01375 77-233 limits assumed): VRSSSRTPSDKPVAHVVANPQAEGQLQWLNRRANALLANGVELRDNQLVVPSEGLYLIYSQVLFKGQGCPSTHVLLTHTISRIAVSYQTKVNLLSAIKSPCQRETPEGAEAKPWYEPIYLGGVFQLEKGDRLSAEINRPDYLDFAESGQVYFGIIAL
Assay: TNF-Induced HEK-Blue Assay
Format: cell-based
[1] = HEK-Blue-CD40L cells, NF-kB-driven secreted alkaline phosphatase reporter, TNFα 0.5 ng/ml, 18 h, read-out: TNF induced HEK-Blue assay IC50 value

Compound | IC50 [1] [nM] | IC50 [nM]
CC(C)C[C@@H]1NC(=O)[C@H](CCCNC(=N)N)NC(=O)[C@H](C(C)C)NC(=O)[C@@H]2CCCN2C(=O)[C@H](Cc2ccc(N)cc2)NC(=O)[C@H](CCCNC(=N)N)NC(=O)[C@H](CC(=O)O)NC(=O)[C@@H]2CCCN2C(=O)CN(C)C(=O)[C@H](Cc2ccc(-c3ccccc3)cc2)NC(=O)[C@H](Cc2ccc(-c3ccccc3)cc2)NC(=O)[C@H](CN2CCOCC2)NC(=O)CSC[C@@H](C(=O)NCC(N)=O)NC1=O [Example 55] ({CH2CO}-[Ala(morpholin-4-yl)][Bip][Bip][Sar]PDR[Phe(4-NH2)]PVRLCG-NH2; thioether N-13) | 50 to 200 | 
CC[C@H](C)[C@@H]1NC(=O)[C@@H]2CCCN2C(=O)[C@H]([C@@H](C)CC)NC(=O)[C@@H](CCCNC(=N)N)NC(=O)[C@H](CC(=O)O)NC(=O)[C@H](Cc2ccccn2)NC(=O)CN(C)C(=O)[C@H](Cc2ccc(-c3ccc(NC(=O)[C@H](Cc4cn(CC(=O)O)c5ccccc45)NC(=O)c4ccccc4)cc3)cc2)NC(=O)[C@H](Cc2ccc(-c3ccccc3)cc2)NC(=O)[C@H](C(C)(C)C)NC(=O)CSC[C@@H](C(=O)NCC(N)=O)NC(=O)[C@H](CC(C)C)NC(=O)[C@H](Cc2cccc(C(N)=O)c2)NC1=O [Example 380] ({CH2CO}-[Tle][Bip][Bip(4'-NH)](X42)[Sar][2Pal]D[dR]IPI[Phe(3-CONH2)]LCG-NH2; thioether N-13) |  | 50 to 200
CC(C)C[C@@H]1NC(=O)[C@H](CCCNC(=N)N)NC(=O)[C@H](C(C)C)NC(=O)[C@@H]2CCCN2C(=O)[C@H](C(C)C)NC(=O)[C@@H](CCCNC(=N)NCc2ccc(C(=O)O)cc2)NC(=O)[C@H](CC(=O)O)NC(=O)[C@@H]2CCCN2C(=O)CN(C)C(=O)[C@H](Cc2ccc(-c3ccc(NC(=O)c4nn(CC(=O)O)c5ccccc45)cc3)cc2)NC(=O)[C@H](Cc2ccc(-c3ccccc3)cc2)NC(=O)[C@H](CN2CCOCC2)NC(=O)CSC[C@@H](C(=O)NCC(N)=O)NC1=O [Example 507] ({CH2CO}-[Ala(morpholin-4-yl)][Bip][Bip(4'-NH)](Indazole3carbonyl(1-CH2COOH))[Sar]PD[X87]VPVRLCG-NH2; thioether N-13) |  | < 50
CC(C)C[C@@H]1NC(=O)[C@H](CCCNC(=N)N)NC(=O)[C@H](C(C)C)NC(=O)[C@@H]2CCCN2C(=O)[C@H](CCc2ccncc2)NC(=O)[C@H](CCCNC(=N)N)NC(=O)[C@H](CC(=O)O)NC(=O)[C@@H]2CCCN2C(=O)CN(C)C(=O)[C@H](Cc2ccc(-c3ccccc3)cc2)NC(=O)[C@H](Cc2ccc(-c3ccccc3)cc2)NC(=O)[C@H](Cc2ccccc2)NC(=O)CSC[C@@H](C(=O)NCC(N)=O)NC1=O [Example 24] ({CH2CO}-F[Bip][Bip][Sar]PDR[h4Pal]PVRLCG-NH2; thioether N-13) | 200 to 2000 | 

Second part, led by results:

IC50 [1] [nM] | Compound | IC50 [nM]
50 to 200 | CC(C)C[C@@H]1NC(=O)[C@H](Cc2ccc(O)cc2)NC(=O)[C@H](C(C)C)NC(=O)[C@H](Cc2cccnc2)NC(=O)[C@H](C(C)C)NC(=O)[C@H](CCCNC(=N)N)NC(=O)[C@H](CC(=O)O)NC(=O)[C@H](Cc2ccc(O)cc2)NC(=O)CN(C)C(=O)[C@H](Cc2ccc(-c3ccccc3)cc2)NC(=O)[C@H](Cc2ccc(-c3ccccc3)cc2)NC(=O)[C@H](CN2CCOCC2)NC(=O)CSC[C@@H](C(=O)NCC(N)=O)NC1=O [Example 107] ({CH2CO}-[Ala(morpholin-4-yl)][Bip][Bip][Sar]YDRV[3Pal]VYLCG-NH2; thioether N-13) | 
50 to 200 | CC(=O)Nc1ccc(-c2ccc(C[C@@H]3NC(=O)[C@H](Cc4ccc(-c5ccccc5)cc4)NC(=O)[C@H](CN4CCOCC4)NC(=O)CSC[C@@H](C(=O)NCC(N)=O)NC(=O)[C@H](CC(C)C)NC(=O)[C@H](Cc4ccc(O)cc4)NC(=O)[C@H](C(C)C)NC(=O)[C@@H]4COCCN4C(=O)[C@H](C(C)C)NC(=O)[C@@H](CCCNC(=N)N)NC(=O)[C@H](CC(=O)O)NC(=O)[C@H](Cc4ccccn4)NC(=O)CN(C)C3=O)cc2)cc1 [Example 180] ({CH2CO}-[Ala(morpholin-4-yl)][Bip][Bip(4'-NHAc)][Sar][2Pal]D[dR]V[Morpholine(3S-CO)]VYLCG-NH2; thioether N-13) | 
50 to 200 | CC[C@H](C)C1NC(=O)[C@@H](CCCNC(=N)N)NC(=O)[C@H](CC(=O)O)NC(=O)[C@H](Cc2ccc(O)cc2)NC(=O)CN(C)C(=O)[C@H](Cc2ccc(-c3ccc(NC(C)=O)cc3)cc2)NC(=O)[C@H](Cc2ccc(-c3ccccc3)cc2)NC(=O)[C@H](CN2CCOCC2)NC(=O)CSC[C@@H](C(=O)NCC(N)=O)NC(=O)[C@H](CC(C)C)NC(=O)[C@H](Cc2cccs2)NC(=O)[C@H](C(C)C)NC(=O)[C@@H]2CCCN2C1=O (stereo partly shown) [Example 258] ({CH2CO}-[Ala(morpholin-4-yl)][Bip][Bip(4'-NHAc)][Sar]YD[dR][ξIle]PV[2Thi]LCG-NH2; thioether N-13) | 

Source: patent US20250145665A1, “MACROCYCLIC PEPTIDES USEFUL AS MODULATORS OF TNF ALPHA” (Bristol-Myers Squibb Company, priority 2023, published 2025)
